From patent US8673914B2, “Use of phosphodiesterase inhibitors for treating multidrug resistance” (St. John's University, priority 2011, dated 2014)
Marks after values point to notes of the source that are not given here.

Assays:
[1] = MTT cytotoxicity assay (Example 4); format: cell-based; details: human; HEK/MRP7; alone; read-out: IC50 of paclitaxel
Description: The MRP7 cDNA was generously provided by Dr. Gary Kruh (University of Illinois, Chicago, Ill.) and inserted into the pcDNA3.1 expression vector. […] Individual colonies were selected in medium containing G418 (1 mg/ml) and cultured for further analysis.
MTT colorimetric assay was performed to analyze the drug sensitivity as previously described (Shi et al. (2007) Cancer Res. 67:11012-20). HEK293-pcDNA3.1 and HEK/MRP7 cells were seeded into 96-well plates in triplicate at 6000 cells/well.
After drug incubation of 68 h, 20 μl MTT solution (4 mg/ml) was added into each well. […] The Bliss method was used to calculate the IC50 values according to survival curves.

KB-C2 cells (ABCB1) = experiment: [^3H]-paclitaxel efflux (Example 1); format: cell-based, human; details: 1 h
Description: The intracellular accumulation of [^3H]-paclitaxel was measured as follows. […] Intracellular paclitaxel accumulation was measured by incubating cells with 0.1 μM [^3H]-paclitaxel for 2 h in the presence or absence of the reversal agents at 37° C. The cells were washed three times with ice-cold PBS, then suspended in fresh medium with or without reversal agents at 37° C. Aliquots of the extracellular medium (40 μl) were collected at various time points (0, 60, 120 min), and finally the cells were collected and lysed in 10 mM lysis buffer (pH 7.4, containing 1% Triton X-100 and 0.2% SDS). Each sample was placed in scintillation fluid and the radioactivity was measured in a Packard TRI-CARB1 1900CA liquid scintillation analyzer from Packard Instrument Company, Inc. (Downers Grove, Ill.).

[2] = MTT cytotoxicity/reversal assay (Example 1); details: human
Description: (§1) The KB-C2 and KB-3-1 were kindly provided by Dr. Akiyama (Kagoshima University, Japan). […] Similarly, the HEK/MRP1 (ABCC1) and HEK/ABCB1 cells were generated by transfecting the HEK293 cells with either the MRP1 expression vector or the ABCB1 expression vector. All of the cell lines were grown in Dulbecco's modified Eagle's medium (DMEM) supplemented with 10% bovine serum, 100 units/ml penicillin, and […] streptomycin in a humidified incubator containing 5% CO2 at 37° C.
(§2) The MTT assay was used to assess cytotoxicity. The cultured cells were harvested with trypsin and resuspended in a final concentration of 4×10^3 cells/well for KB-3-1; 7.5×10^3 cells/well for KB-C2; and 8×10^3 for all of the other cell lines used in this study. Cells were seeded evenly in 96-well multiplates. […] After 68 h of incubation, 20 μl of the MTT solution (4 mg/ml) was added to each well, and the plate was further incubated for 4 h at 37° C., allowing viable cells to convert the yellow-colored MTT into dark-blue formazan crystals. Subsequently, the medium was discarded, and 100 μl of DMSO was added into each well to dissolve the formazan crystals, generating purple color. The absorbance was determined at 570 nm by an OPSYS Microplate Reader from DYNEX Technologies, Inc. (Chantilly, Va.). […] The degree of the reversal of multidrug resistance (MDR) was calculated by dividing the IC50 of an anticancer drug, e.g., an antineoplastic or chemotherapeutic drug (agent, compound), in a cell type in the absence of a reversal agent by the IC50 of the anticancer drug in the same cell type in the presence of the reversal agent. The IC50 values were calculated from survival curves using the Bliss method.

KB-V1 = experiment: MTT cytotoxicity/reversal assay (Example 2); format: cell-based, human; details: alone
Description: (§3) The ABCB1-overexpressing drug resistant cell line KB-V1 (generously provided by Dr. Gottesman, NCI, NIH) was established by a stepwise concentration increase of vinblastine in the culture medium of KB-3-1 cells and subsequently culturing these cells in medium with 1 μg/mL of vinblastine. An ABCC1-overexpressing MDR cell line, KB-CV60, was also derived from KB-3-1 cells and was maintained in medium with 1 μg/mL of cepharanthine and 60 ng/mL of vincristine. Both KB-C2 and KB-CV60 cell lines were kindly provided by Dr. Akiyama (Kagoshima University, Japan). HEK293/pcDNA3.1, ABCG2-482-R5, ABCG2-482-G2, and ABCG2-482-T7 cells were established by selection with 2 mg/mL G418 after transfecting HEK293 with either (1) empty pcDNA3.1 vector or (2) pcDNA3.1 vector containing full length ABCG2 coding either (2a) wild-type arginine (R) or mutant (2b) glycine (G) or (2c) threonine (T) at amino acid position 482, respectively. The wild-type ABCG2-overexpressing drug-resistant cell line MCF-7/Flv1000 was cultured in the medium with 1 μM of flavopiridol. […] Another G482 mutant ABCG2-overexpressing drug resistant cell line, S1-M1-80, was maintained in the medium with 80 μM of mitoxantrone. […] All the cell lines were grown as adherent monolayers in flasks with DMEM (Dulbecco's modified Eagle's medium) culture medium (Hyclone Co.) containing 10% bovine serum at 37° C. in a humidified atmosphere of 5% CO2.
(§4) Cells in 96-well plates were preincubated with or without the reversal agents for 1 h and then different concentrations of chemotherapeutic drugs were added into designated wells. After 68 h of incubation, MTT solution (4 mg/mL) was added to each well, and the plate was further incubated for 4 h, allowing viable cells to change the yellow-colored MTT into dark-blue formazan crystals. Subsequently the medium was discarded, and […] of DMSO was added into each well to dissolve the formazan crystals. The absorbance was determined at 570 nm by an OPSYS MR Microplate Reader from DYNEX Technologies, Inc.

KB-3-1 = experiment: MTT cytotoxicity/reversal assay (Example 2); format: cell-based, human; details: alone
Description: as §3, §4

KB-C2 = experiment: MTT cytotoxicity/reversal assay (Example 2); format: cell-based, human; details: alone
Description: as §3, §4

HEK/MRP1 (ABCC1) = experiment: MTT cytotoxicity/reversal assay (Example 1); format: cell-based; details: +10 μM reversal agent
Description: as §1, §2

any cell lines tested = experiment: MTT assay, vardenafil or tadalafil alone; format: cell-based; details: concentrations of up to 20 μM
Description: as §2

KB-3-1 cells [3] = experiment: [^3H]-paclitaxel efflux (Example 1); format: cell-based, human; details: absence or presence of vardenafil
Description: (§5) The cells were washed three times with ice-cold PBS, then suspended in fresh medium with or without reversal agents at 37° C. […] Each sample was placed in scintillation fluid and the radioactivity was measured in a Packard TRI-CARB1 1900CA liquid scintillation analyzer from Packard Instrument Company, Inc. (Downers Grove, Ill.).

KB-3-1 cells [4] = experiment: [^3H]-paclitaxel accumulation (Example 1); format: cell-based, human; details: 10 μM
Description: as §5

SMILES | IC50 at 68 h [1] | accumulated paclitaxel effluxed (KB-C2 cells (ABCB1); absence of vardenafil) | IC50 at 68 h [2] | fold-resistance, paclitaxel (KB-V1) | fold-resistance, paclitaxel (KB-3-1) | fold-resistance, paclitaxel (KB-C2) | fold reversal, vincristine (HEK/MRP1 (ABCC1)) | growth inhibition by the PDE5 inhibitor alone (any cell lines tested) | accumulated paclitaxel retained inside cells (KB-C2 cells (ABCB1); 10 μM) | change in effluxed paclitaxel (KB-3-1 cells [3]) | effect on paclitaxel accumulation (KB-3-1 cells [4])
CC(=O)O[C@H]1C(=O)[C@@]2(C)[C@H]([C@H](OC(=O)c3ccccc3)[C@]3(O)C[C@H](OC(=O)[C@H](O)[C@@H](NC(=O)c4ccccc4)c4ccccc4)C(C)=C1C3(C)C)[C@]1(OC(C)=O)CO[C@@H]1C[C@@H]2O [Paclitaxel, paclitaxel] | 0.107 ± 0.0112 µM | 70% | 219 ± 13.2 µM | (1079.6) | (1.0)^c | (788.5) |  |  |  |  | 
CN1CC(=O)N2[C@H](c3ccc4c(c3)OCO4)c3[nH]c4ccccc4c3C[C@@H]2C1=O [Tadalafil, tadalafil] |  |  |  |  |  |  | (1.03) | neither vardenafil nor tadalafil inhibited the growth of any cell lines tested |  |  | 
CCCc1nc(C)c2c(=O)[nH]c(-c3cc(S(=O)(=O)N4CCN(CC)CC4)ccc3OCC)nn12 [Vardenafil, vardenafil] |  |  |  |  |  |  | (1.07) | neither vardenafil nor tadalafil inhibited the growth of any cell lines tested | 75% | No significant change | without altering the levels
